Consider one molecule from patent publication USRE45471E1, “Pharmaceutical composition or combination drug” (Nanocarrier Co., Ltd., priority 2008, dated 2015).

Counter-ions that a name gives are not always drawn.

In this test the test system is CDDP-resistant human lung cancer MOR/CPR cells. Kind of test: In vitro cell growth inhibitory effect (WST method) on CDDP-resistant human lung cancer MOR/CPR cells. The note with it: gemcitabine hydrochloride alone, estimated. It is filed as cell-based. The procedure:
The GI50 value in the case of gemcitabine hydrochloride alone was estimated to be about 10 μg/mL.
The cisplatin coordination compound obtained in Example 1 was prepared as a mannitol solution having a final concentration of 5% so as to contain 2.5 mg/mL in terms of CDDP. […] Furthermore, the concentrations or dosages of the cis-platin coordination compound are all indicated as the concentrations or dosages in terms of CDDP.

The GI50 is the concentration that inhibits growth by half. For the molecule `Nc1ccn([C@@H]2O[C@H](CO)[C@@H](O)C2(F)F)c(=O)n1` [gemcitabine hydrochloride, Gemcitabine hydrochloride], the GI50 is approximately 10 µg/mL.
